Test results taken from patent EP1311531B1, “STEROID DERIVED ANTIBIOTICS” (Brigham Young University, priority 2000, dated 2002).
Converted amounts (≈) assume the structure as drawn. Where two headings read alike, the source gives them in different places. Each block holds one molecule with its values, some of them ahead of it.

Columns and labels:
[1] = test system: Escherichia coli ATCC 25922; assay: Sensitization to erythromycin, novobiocin or rifampicin (permeabilization, FIC); settings: for c: concentration of the compounds required to lower the MIC of erythromycin from 30 to 1 µg/mL: Table 16, with E. coli
Method: FICs can be performed by checkerboard titrations of compounds in one dimension of a microtiter plate, and of antibiotics in the other dimension, for example. The FIC is calculated by looking at the impact of one antibiotic on the MIC of the other and vice versa. […] As used herein, FIC can be determined as follows: FIC = (MIC(compound in combination))/(MIC(compound alone)) + (MIC(antibiotic in combination))/(MIC(antibiotic alone)) [formula]

E. coli (ATCC 10798) [2] = assay: MIC and MBC measurement; format: cell-based, Escherichia coli; settings: Escherichia coli, ATCC10798, Table 1, E. coli (ATCC 10798)
Method: (§1) General: Microorganisms. Reference strains were purchased from the American Type Culture Collection (Rockville, MD) or Bactrol disks from Difeo Laboratories (Detroit, MI). […] Bacterial strains were maintained on Mueller-Hinton agar plates, and Candida albicans was maintained on Sabouraud Dextrose agar plates.
(§2) Aliquots (20 mL) of the homogeneous solution were then poured in sterile plastic petri dishes (100 x 15 mm, Fisher Scientific). Solutions of compounds were made by dissolving the HCl salt of the respective compound into an appropriate amount of deionized and sterilized water followed by microfiltration.
(§3) Aliquots of 1 mL of the suspension were added to test tubes containing 1 mL TSB and incrementally varied concentrations of cholic acid derivatives and/or erythromycin or novobiocin. […] Additionally, an alliquot from each of the samples showing no measurable turbidity was subcultured on TSA plates (alliquots were diluted to provide fewer than 300 CFU). Colonies that grew on the subculture after overnight incubation were counted and the number of CFU/mL in the samples were calculated. The calculated values were compared to the number of CFU/mL in the original inoculum.

E. coli (ATCC 10798) [3] = assay: Sensitization to erythromycin or novobiocin (outer membrane permeabilization, FIC); format: cell-based, Escherichia coli; settings: E. coli (ATCC 10798); for MBC: Escherichia coli
Method: (§4) FICs can be performed by checkerboard titrations of compounds in one dimension of a microtiter plate, and of antibiotics in the other dimension, for example. The FIC is calculated by looking at the impact of one antibiotic on the MIC of the other and vice versa. […] Preferably, an FIC of less than 0.5 is obtained for synergism. As used herein, FIC can be determined as follows: FIC = (MIC(compound in combination))/(MIC(compound alone)) + (MIC(antibiotic in combination))/(MIC(antibiotic alone)) [formula]
(§5) Aliquots of 1 mL of the suspension were added to test tubes containing 1 mL TSB and incrementally varied concentrations of cholic acid derivatives and/or erythromycin or novobiocin. In the sensitization experiments, erythromycin or novobiocin were added 15 minutes later than the cholic acid derivatives. The samples were subjected to stationary incubation at 37°C for 24 hours. Sample turbidity was determined by measuring absorption at 760 nm (HP 8453 UV-Visible Chemstation, Hewlett Packard). Additionally, an alliquot from each of the samples showing no measurable turbidity was subcultured on TSA plates (alliquots were diluted to provide fewer than 300 CFU). Colonies that grew on the subculture after overnight incubation were counted and the number of CFU/mL in the samples were calculated. The calculated values were compared to the number of CFU/mL in the original inoculum.
They were also tested for the ability to permeabilize the outer membrane of Gram-negative bacteria, causing sensitization to hydrophobic antibiotics that cannot cross the outer membrane. The permeabilization of the outer membrane was measured using erythromycin and novobiocin.

[4] = test system: Escherichia coli ATCC 25922; assay: MIC and MBC measurement; format: cell-based
Excerpt: (§6) General: Microorganisms. Reference strains were purchased from the American Type Culture Collection (Rockville, MD) or Bactrol disks from Difeo Laboratories (Detroit, MI). The following specific ATCC strains were used: 10798 Escherichia coli, 25922 Escherichia coli, 13883 Klebsiella pneumoniae, 27853 Pseudomonas aeruginosa, 14028 Salmonella typhimurium, 29212 Enterococcus faecalis, 25923 Staphylococcus aureus, 19615 Streptococcus pyogenes, and 90028 Candida albicans. Bacterial strains were maintained on Mueller-Hinton agar plates, and Candida albicans was maintained on Sabouraud Dextrose agar plates.
(§7) Tryptic soy broth (TSB) was made by dissolving 27.5 grams of tryptic soy broth without dextrose (DIFCO Laboratories) in 1 liter of deionized water and sterilizing at 121 °C for 15 minutes. Solid agar (TSA) plates were made by dissolving 6.4 grams of tryptic soy broth and 12 grams of agar (purified grade, Fischer Scientific) in 800 mL of deionized water and sterilizing at 121 °C for 20 minutes. Aliquots (20 mL) of the homogeneous solution were then poured in sterile plastic petri dishes (100 x 15 mm, Fisher Scientific). Solutions of compounds were made by dissolving the HCl salt of the respective compound into an appropriate amount of deionized and sterilized water followed by microfiltration.
as §5, with “inoculum. […]” for “inoculum.”

[5] = test system: Pseudomonas aeruginosa ATCC 27853; assay: Sensitization to erythromycin, novobiocin or rifampicin (permeabilization, FIC); format: cell-based; settings: P. aureginosa (ATCC 27853)
Method: as §4, §5
Concentrations of 0.5, 1.0 or 3.0 µg/mL of these antibiotics were used, and the concentrations of the cholic acid derivatives required to inhibit bacterial growth of Gram-negative strains were determined.

[6] = test system: Pseudomonas aeruginosa ATCC 27853; assay: MIC and MBC measurement; format: cell-based; settings: ATCC27853, Table 6, P. aureginosa (ATCC 27853)
Method: as §1, §2, §3

Gram-negative bacteria = assay: MIC and permeabilization measurements, strain not stated (Table 14, Fig. 5)
[7] = Minimum hemolytic concentration (MHC); format: cell-based; settings: Table 16
Method: Minimum inhibition concentrations (MIC) and minimum hemolytic concentrations (MHC) were measured as described in Li et al., Antimicrob. Agents. Chemother., 1999, 43, 1347. […]

[8] = test system: Staphylococcus aureus ATCC 25923; assay: MIC and MBC measurement; format: cell-based; settings: Table 16 (MIC^a), S. aureus (ATTC 25923)
Excerpt: as §6, §7
as §5, with “inoculum. […]” for “inoculum.”

[9] = Stability (half-lives) in phosphate buffer, decomposition observed via HPLC; format: physicochemical; settings: 50 mM phosphate buffer, room temperature; for stabilities (half-lives) pH 2.0: pH 2.0, approximately 10 mM; for stabilities (half-lives) pH 7.0: pH 7.0, approximately 10 mM; for stabilities (half-lives) pH 12.0: pH 12.0, approximately 10 mM
Method: Compounds 352 - 354 were dissolved in 50 mM phosphate buffered water (pH 2.0, 7.0 or 12.0) at approximately 10 mM concentrations. […] These compounds were used since they contain a chromophore that facilitated monitoring of decomposition by absorption methods common in the HPLC apparatus used.

[10] = Escherichia coli, ATCC25922, Table 16 (MIC^b), E. coli (ATTC 25922), read-out: MIC
[11] = Staphylococcus aureus, ATCC25923, read-out: MIC

Compound: C[C@H](CCCN)[C@H]1CC[C@H]2[C@@H]3[C@H](OCCCN)C[C@@H]4C[C@H](OCCCN)CC[C@]4(C)[C@H]3C[C@H](OCCCN)[C@]12C [Compound 135]
MBC (Gram-negative bacteria; in words, text on Fig. 5): relatively high | MIC (Gram-negative bacteria; in words, text on Fig. 5): relatively high

Compound: C[C@H](CCCO)[C@H]1CC[C@H]2[C@@H]3[C@H](N)C[C@@H]4C[C@H](N)CC[C@]4(C)[C@H]3C[C@H](N)[C@]12C [Compound 206]
activity as a permeabilizer (Gram-negative bacteria; in words): ineffective as a permeabilizer

Compound: C[C@H](CCC(=O)OCC[N+](C)(C)C)[C@H]1CC[C@H]2[C@@H]3[C@H](OC(=O)CCN)C[C@@H]4C[C@H](OC(=O)CCN)CC[C@]4(C)[C@H]3C[C@H](OC(=O)CCN)[C@]12C [Compound 325]
c: concentration of the compounds required to lower the MIC of erythromycin from 30 to 1 µg/mL [1]: 2.0 µg/mL | MHC [7]: >200 µg/mL | MIC [4, 10]: 30 µg/mL | MIC [8, 11]: 11 µg/mL

Compound: C[C@H](CCC(=O)OCC[N+](C)(C)C)[C@H]1CC[C@H]2[C@@H]3[C@H](OC(=O)CCCN)C[C@@H]4C[C@H](OC(=O)CCCN)CC[C@]4(C)[C@H]3C[C@H](OC(=O)CCCN)[C@]12C [Compound 326]
c: concentration of the compounds required to lower the MIC of erythromycin from 30 to 1 µg/mL [1]: 2.0 µg/mL | MHC [7]: >200 µg/mL | MIC [4, 10]: 23 µg/mL | MIC [8, 11]: 14 µg/mL

Compound: C[C@H](CCC(=O)O)[C@H]1CC[C@H]2[C@@H]3[C@H](OC(=O)CN)C[C@@H]4C[C@H](OC(=O)CN)CC[C@]4(C)[C@H]3C[C@H](OC(=O)CN)[C@]12C [Compound 327]
c: concentration of the compounds required to lower the MIC of erythromycin from 30 to 1 µg/mL [1]: >100 µg/mL | MHC [7]: >100 µg/mL | MIC ([4]; Table 16, second MIC column (MIC^b), E. coli (ATTC 25922)): >100 µg/mL | MIC [8]: >100 µg/mL

Compound: CCCCCCCCOC(=O)CC[C@@H](C)[C@H]1CC[C@H]2[C@@H]3[C@H](OC(=O)CCCN)C[C@@H]4C[C@H](OC(=O)CCCN)CC[C@]4(C)[C@H]3C[C@H](OC(=O)CCCN)[C@]12C [Compound 343]
c: concentration of the compounds required to lower the MIC of erythromycin from 30 to 1 µg/mL [1]: 3.5 µg/mL | MHC [7]: <10 µg/mL | MIC [4, 10]: 3.5 µg/mL (≈ 4.51 µM) | MIC [8, 11]: 1.2 µg/mL (≈ 1.55 µM)

Compound: C[C@H](CCCN(C)Cc1ccccc1)[C@H]1CC[C@H]2[C@@H]3[C@H](OC(=O)CCCN)C[C@@H]4C[C@H](OC(=O)CCCN)CC[C@]4(C)[C@H]3C[C@H](OC(=O)CCCN)[C@]12C [Compound 354]
stabilities (half-lives) pH 2.0 [9]: 33 days | stabilities (half-lives) pH 7.0 [9]: 12 days | stabilities (half-lives) pH 12.0 [9]: <30 minutes

More lines, main results first:

MIC (E. coli (ATCC 10798) [2]; read-out: MIC): 5 µg/mL (≈ 6.64 µM) | MIC ([4]; Escherichia coli, ATCC25922, Table 4, E. coli (ATCC 25922), read-out: MIC): 6 µg/mL (≈ 7.97 µM) | MIC [6]: 15 µg/mL (≈ 19.9 µM)
Compound: C[C@H](CCCN(C)Cc1ccccc1)[C@H]1CC[C@H]2[C@@H]3[C@H](OCCNC(=N)N)C[C@@H]4C[C@H](OCCNC(=N)N)CC[C@]4(C)[C@H]3C[C@H](OCCNC(=N)N)[C@]12C [Compound 4]
MBC ([1]; Escherichia coli, ATCC25922): 5 µg/mL | concentration required to lower the MIC of erythromycin from 60 µg/mL to 1 µg/mL ([1]; Table 5, E. coli (ATCC 25922), with erythromycin): 1 µg/mL | MBC (E. coli (ATCC 10798) [2]; read-out: MBC): 10 µg/mL (≈ 13.3 µM) | MBC (E. coli (ATCC 10798) [3]; ATCC10798, Table 2, with erythromycin): 10 µg/mL | MBC (E. coli (ATCC 10798) [3]; ATCC10798, Table 3, with novobiocin): 10 µg/mL | concentration required to lower the MIC of erythromycin from 70 µg/mL to 1 µg/mL (E. coli (ATCC 10798) [3]; Table 2, with erythromycin): 1.5 µg/mL | MBC ([4]; Escherichia coli, ATCC25922, Table 4, E. coli (ATCC 25922)): 9 µg/mL (≈ 12 µM) | MBC ([5]; Pseudomonas aeruginosa, ATCC27853, Table 7, with erythromycin): 40 µg/mL | concentration required to lower the MIC of erythromycin from 240 µg/mL to 5 µg/mL ([5]; Table 7, with erythromycin): 5 µg/mL | concentration required to lower the MIC of novobiocin from >500 µg/mL to 1 µg/mL ([5]; Table 8, with novobiocin): 6 µg/mL | MBC [6]: 40 µg/mL (≈ 53.1 µM)

MIC (Gram-negative bacteria; Table 14): 85 µg/mL (≈ 110 µM) | a: concentration of cholic acid derivatives required to lower MIC of erythromycin to 1 µg/ML (Gram-negative bacteria; Table 14): 45 µg/mL | b: concentration of cholic acid derivatives required to lower MIC of novobiocin to 1 µg/ML (Gram-negative bacteria; Table 14): 60 µg/mL
Compound: CC(CCCO)C1CCC2C3C(NC(=O)C(N)CCCCN)CC4CC(NC(=O)C(N)CCCCN)CCC4(C)C3CC(NC(=O)C(N)CCCCN)C12C (centres unmarked) [Compound 209c]

MIC [4, 10]: 60 µg/mL | MIC [8, 11]: 15 µg/mL
Compound: C[C@H](CCC(=O)OCC[N+](C)(C)C)[C@H]1CC[C@H]2[C@@H]3[C@H](OC(=O)CN)C[C@@H]4C[C@H](OC(=O)CN)CC[C@]4(C)[C@H]3C[C@H](OC(=O)CN)[C@]12C [Compound 324]
c: concentration of the compounds required to lower the MIC of erythromycin from 30 to 1 µg/mL [1]: 10 µg/mL | MHC [7]: >200 µg/mL

MIC [4, 10]: 1 µg/mL (≈ 1.45 µM) | MIC [8, 11]: 1.8 µg/mL (≈ 2.6 µM)
Compound: CCCCCCCCOC(=O)CC[C@@H](C)[C@H]1CC[C@H]2[C@@H]3[C@H](OC(=O)CN)C[C@@H]4C[C@H](OC(=O)CN)CC[C@]4(C)[C@H]3C[C@H](OC(=O)CN)[C@]12C [Compound 341]
c: concentration of the compounds required to lower the MIC of erythromycin from 30 to 1 µg/mL [1]: 0.7 µg/mL | MHC [7]: 4.0 µg/mL

stabilities (half-lives) pH 2.0 [9]: >37 days | stabilities (half-lives) pH 7.0 [9]: 28 days | stabilities (half-lives) pH 12.0 [9]: <30 minutes
Compound: C[C@H](CCCN(C)Cc1ccccc1)[C@H]1CC[C@H]2[C@@H]3[C@H](OC(=O)CN)C[C@@H]4C[C@H](OC(=O)CN)CC[C@]4(C)[C@H]3C[C@H](OC(=O)CN)[C@]12C [Compound 352]

stabilities (half-lives) pH 2.0 [9]: >37 days | stabilities (half-lives) pH 7.0 [9]: 37 days | stabilities (half-lives) pH 12.0 [9]: <30 minutes
Compound: C[C@H](CCCN(C)Cc1ccccc1)[C@H]1CC[C@H]2[C@@H]3[C@H](OC(=O)CCN)C[C@@H]4C[C@H](OC(=O)CCN)CC[C@]4(C)[C@H]3C[C@H](OC(=O)CCN)[C@]12C [Compound 353]
